Source: publication PMC5000626 (International Journal of Molecular Sciences, 2016)
Where two headings read alike, the source gives them in different places.

Assays:
LLC-PK1 = LLC-PK1 cells; cited from earlier work
mMATE1 [1] = target: T1, mMATE1 (Mus musculus, UniProt Q8K0H1); experiment: cell-based
T1 sequence (Q8K0H1 1-567): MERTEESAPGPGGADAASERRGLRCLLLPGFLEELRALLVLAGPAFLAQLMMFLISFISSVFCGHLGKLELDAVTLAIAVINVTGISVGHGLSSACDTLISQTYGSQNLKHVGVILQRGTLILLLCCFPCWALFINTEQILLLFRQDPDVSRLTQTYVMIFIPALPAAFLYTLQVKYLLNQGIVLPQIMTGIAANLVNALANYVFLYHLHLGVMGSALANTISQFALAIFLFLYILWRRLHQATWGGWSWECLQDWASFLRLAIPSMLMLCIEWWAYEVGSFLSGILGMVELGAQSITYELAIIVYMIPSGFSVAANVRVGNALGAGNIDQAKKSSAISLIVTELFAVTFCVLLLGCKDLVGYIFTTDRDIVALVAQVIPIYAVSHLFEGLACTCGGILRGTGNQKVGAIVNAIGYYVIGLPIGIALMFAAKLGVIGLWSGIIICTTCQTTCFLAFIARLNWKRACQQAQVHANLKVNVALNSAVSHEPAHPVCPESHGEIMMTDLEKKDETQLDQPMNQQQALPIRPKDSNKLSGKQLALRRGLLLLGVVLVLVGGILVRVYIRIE

[2] = cited from earlier work
hMATE2-K [3] = target: T2, hMATE2-K (Homo sapiens, UniProt Q86VL8); experiment: cell-based
T2 sequence (Q86VL8 1-566 isoform Q86VL8-3): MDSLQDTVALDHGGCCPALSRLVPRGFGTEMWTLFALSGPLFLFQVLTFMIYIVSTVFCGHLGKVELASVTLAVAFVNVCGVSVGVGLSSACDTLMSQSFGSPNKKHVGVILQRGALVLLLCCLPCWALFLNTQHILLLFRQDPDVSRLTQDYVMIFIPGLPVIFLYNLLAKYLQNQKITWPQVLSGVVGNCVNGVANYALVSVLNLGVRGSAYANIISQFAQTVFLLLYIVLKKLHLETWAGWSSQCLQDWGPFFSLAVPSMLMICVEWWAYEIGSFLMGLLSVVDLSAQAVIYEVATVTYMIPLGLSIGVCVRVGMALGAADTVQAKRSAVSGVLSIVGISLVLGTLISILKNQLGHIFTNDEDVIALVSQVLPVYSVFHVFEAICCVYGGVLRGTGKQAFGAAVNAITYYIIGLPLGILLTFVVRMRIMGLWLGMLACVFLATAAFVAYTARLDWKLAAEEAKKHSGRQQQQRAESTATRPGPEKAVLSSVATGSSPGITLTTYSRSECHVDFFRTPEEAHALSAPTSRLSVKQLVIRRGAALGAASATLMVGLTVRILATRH
Protocol: (§1) For transient expression, HEK293 cells were seeded on 24-well (2 × 10^5 cells/well) poly-D-lysine-coated plates (BD Biocoat, Franklin Lakes, NJ, USA) and transfected with hMATE1, hMATE2-K and mMATE1 cDNA containing plasmid vectors and empty vectors (pcDNA3.1(+) for hMATE1 and hMATE2-K, pFLAG for mMATE1) by using the LipofectAMINE 2000 Reagent (Life Technologies Corporation), according to the manufacturer’s instructions. The cells were used for uptake experiments at 48 h after transfection, while the empty vector-expressing cells were used as control.
(§2) The cells were dissolved in 0.5 mL of 0.5 normality (N) sodium hydroxide (NaOH), and then, the radioactivity in 200 µL was determined using liquid scintillation counting following addition to 2 mL of Ultima Gold (PerkinElmer). The protein content of each NaOH solution was determined using a Bio-Rad Protein Assay Kit (Bio-Rad Laboratories, Hercules, CA, USA) by using bovine γ-globulin as a standard. The Km and Vmax values were calculated from the saturation curve using the Michaelis–Menten equation, V = Vmax[S]/(Km + [S]), with Kaleidagraph Version 4.00 (Synergy Software, Reading, PA, USA) after the nonspecific uptake values were subtracted.

hMATE2-K [4] = target: T2, hMATE2-K; conditions: [3H]dopamine uptake, HEK293 cells expressing hMATE2-K
Protocol: as §1, §2

mMATE1 [5] = target: T1, mMATE1; conditions: [3H]dopamine uptake, HEK293 cells expressing mMATE1
Protocol: as §1, §2

hMATE1 = target: T3, hMATE1 (Homo sapiens, UniProt Q96FL8); experiment: [3H]dopamine uptake kinetics in HEK293 cells transiently expressing hMATE1; assay type: cell-based
T3 sequence (Q96FL8 1-570): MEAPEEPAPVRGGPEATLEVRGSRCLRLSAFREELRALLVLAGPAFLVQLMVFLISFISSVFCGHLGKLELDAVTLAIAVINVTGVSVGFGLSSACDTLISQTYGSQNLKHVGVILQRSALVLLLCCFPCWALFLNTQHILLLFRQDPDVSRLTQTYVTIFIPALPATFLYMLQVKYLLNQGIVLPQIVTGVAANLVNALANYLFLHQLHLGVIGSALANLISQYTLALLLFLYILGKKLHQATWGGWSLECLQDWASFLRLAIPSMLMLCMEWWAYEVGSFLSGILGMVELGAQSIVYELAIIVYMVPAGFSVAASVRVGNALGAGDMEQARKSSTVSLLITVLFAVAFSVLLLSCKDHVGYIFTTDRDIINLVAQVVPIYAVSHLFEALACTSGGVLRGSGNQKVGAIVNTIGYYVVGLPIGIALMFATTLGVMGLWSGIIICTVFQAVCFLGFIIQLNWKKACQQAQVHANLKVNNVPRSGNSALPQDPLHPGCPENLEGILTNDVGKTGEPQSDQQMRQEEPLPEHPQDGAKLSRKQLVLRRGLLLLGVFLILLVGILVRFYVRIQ
Protocol: as §1, §2

[6] = patients with CML (imatinib also gastrointestinal stromal tumors), efficacy target for imatinib and nilotinib, safety limit for dasatinib

Row | Compound | inhibition of outward transfer of synthesized dopamine (LLC-PK1) | IC50 (mMATE1 [1]) [µM] | plasma trough concentration (Ctrough), clinical target [2, 6] [ng/mL] | plasma trough concentration (Ctrough), clinical target ([2]; same targets in molar units) [nM] | also measured
1 | Fc1ccc(C(OCCN2CCN(CCCc3ccccc3)CC2)c2ccc(F)cc2)cc1 [GBR-12909] | failed to inhibit |  |  |  | 
2 | Cc1nc(Nc2ncc(C(=O)Nc3c(C)cccc3Cl)s2)cc(N2CCN(CCO)CC2)n1 [Dasatinib, dasatinib] |  | 106 ± 7 | ≤ 2.5 | ≤ 5 | 
3 | COC(=O)[C@H]1[C@@H](OC(=O)c2ccccc2)C[C@@H]2CC[C@H]1N2C [cocaine] | failed to inhibit |  |  |  | 
4 | Cc1cn(-c2cc(NC(=O)c3ccc(C)c(Nc4nccc(-c5cccnc5)n4)c3)cc(C(F)(F)F)c2)cn1 [Nilotinib, nilotinib] |  | > 100 | > 761 | > 1400 | IC50 (hMATE2-K [3]): > 100 µM
5 | NCCc1ccc(O)c(O)c1 [dopamine] |  |  |  |  | Vmax (hMATE2-K [4]): 7.69 ± 1.12 nmol·mg·protein^−1·min^−1; Vmax (mMATE1 [5]): 8.73 ± 0.08 nmol·mg·protein^−1·min^−1; Km (hMATE1; [3H]dopamine uptake at 1 min, HEK293 cells expressing hMATE1, mean ± S.E., n=3): 560 ± 180 µM; Vmax (hMATE1; [3H]dopamine uptake, HEK293 cells expressing hMATE1): 3.71 ± 0.15 nmol·mg·protein^−1·min^−1
